Assay results reported in patent US12419862B2, “Use of a cathepsin s inhibitor against the formation of anti-drug antibodies” (Hoffmann-La Roche Inc., priority 2018, dated 2025).

Legend:
[1] = tested on: adalimumab-specific IgG response; experiment: ADA against adalimumab in hIgG1 Tg mice over time, ELISA (Example 3, 63 days); format: in vivo, C57BL/6-Tg (hIgG1,k,l) mice; details: 40 mg/kg/day via food admix from one day before first immunization until day 28, blood samples to day 56, vs vehicle
Procedure: 15-week-old female mice C57BL/6-Tg (hIgG1,k,l) were purchased from Taconic (Denmark) and housed at the animal facilities in room with air-conditioned under a 12 hours light/dark cycle in macrolon boxes with enriched environment and free access to water and food. 7×10 μg of Humira (Adalimumab, Abbvie Germany GmbH) were injected at day 0, 4, 7, 11, 14, 18 and 21 subcutaneously in the right flank or the left flank alternatively. The dosage of (2S,4R)-4-[4-(1-methyl-1H-pyrazol-4-yl)-2-trifluoromethyl-benzenesulfonyl]-1-(1-trifluoromethyl-cyclopropanecarbonyl)-pyrrolidine-2-carboxylic acid (1-cyano-cyclopropyl)-amide consumption was 40 mg/kg/day. (2S,4R)-4-[4-(1-methyl-1H-pyrazol-4-yl)-2-trifluoromethyl-benzenesulfonyl]-1-(1-trifluoromethyl-cyclopropanecarbonyl)-pyrrolidine-2-carboxylic acid (1-cyano-cyclopropyl)-amide was given via food admix (Ssniff Spezialdiäten, Germany) daily from one day before the first Humira immunization until day 28. […]
(§1) Nunc Maxisorp flat-bottom 96 well ELISA plates were coated with 100 μl per well of Humira or CEA-PGLALA respectively at 5 μg/mL in NaHCO3100 mM buffer overnight at +4° C. […] 100 μl of substrate P-nitrophenyl phosphate ready to use (Life Technologies, Cat no 002212) were added per well and after 10 min incubation at room temperature, the OD at 405 nm was read as an end-point measurement with a Versamax ELISA reader.

[2] = tested on: IgG response to murine hemi-surrogate CEA-TCB; experiment: ADA against murine hemi-surrogate CEA-TCB in hIgG1 Tg mice, ELISA (Example 8); format: in vivo, C57BL/6-Tg (hIgG1,k,l) mice; details: 40 mg/kg/day via food admix from one week before first immunization until day 28, vs vehicle
Procedure: 11-15-week-old mice C57BL/6-Tg (hIgG1,k,l) mixed gender (n=20) were purchased from Taconic (Denmark) and housed at the animal facilities in room with air-conditioned under a 12 hours light/dark cycle in macrolon boxes with enriched environment and free access to water and food. 7×10 μg of CEA-TCB (P1AE3536, huCEA binder CH1A1A/mouse CD3 binder 2C11) were injected at day 0, 4, 7, 11, 14, 18 and 21 subcutaneously in the right flank or the left flank alternatively. The dosage of (2S,4R)-4-[4-(1-methyl-1H-pyrazol-4-yl)-2-trifluoromethyl-benzenesulfonyl]-1-(1-trifluoromethyl-cyclopropanecarbonyl)-pyrrolidine-2-carboxylic acid (1-cyano-cyclopropyl)-amide consumption was 40 mg/kg/day. […]
as §1, with “huCEA IgG PGLALA (P1AD9477)” for “Humira”, “hu anti mouse CD3 (P1AE2779-001-01)” for “CEA-PGLALA”

Cn1cc(-c2ccc(S(=O)(=O)[C@@H]3C[C@@H](C(=O)NC4(C#N)CC4)N(C(=O)C4(C(F)(F)F)CC4)C3)c(C(F)(F)F)c2)cn1 [cathepsin S inhibitor, (2S,4R)-4-[4-(1-methyl-1H-pyrazol-4-yl)-2-trifluoromethyl-benzenesulfonyl]-1-(1-trifluoromethyl-cyclopropanecarbonyl)-pyrrolidine-2-carboxylic acid (1-cyano-cyclopropyl)-amide]
ADA to adalimumab (adalimumab-specific IgG) over time [1]: reduces ADA to adalimumab | ADA specific to CD3 binder (2C11) of CEA-TCB [2]: significantly reduced ADA to CD3 binder | CEA-specific ADA to CEA-TCB [2]: reduction of CEA-specific ADA was not significant
